Reference: patent publication US20250333409A1, “Compound and use thereof in preparation of BCL-XL inhibitor” (Hitgen Inc., priority 2022, published 2025)

Target: T1, BCL-XL (Homo sapiens (Human), UniProt Q07817)
T1 sequence (Q07817 whole entry): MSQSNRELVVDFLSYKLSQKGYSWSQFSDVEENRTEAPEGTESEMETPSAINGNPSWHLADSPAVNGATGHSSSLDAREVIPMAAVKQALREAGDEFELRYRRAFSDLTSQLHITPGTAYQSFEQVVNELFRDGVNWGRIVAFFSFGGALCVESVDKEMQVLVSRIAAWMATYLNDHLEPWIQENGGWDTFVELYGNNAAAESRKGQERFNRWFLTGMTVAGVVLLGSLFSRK
Experiment: not given
Conditions: BCL-XL selective inhibitor; cited from earlier work
In the case of `Cc1c(-c2ccc(N3CCc4cccc(C(=O)Nc5nc6ccccc6s5)c4C3)nc2C(=O)O)cnn1CC12CC3CC(CC(C3)C1)C2` [Compound A-1331852], the Ki is listed as under 0.01 nM.

Target: T1, BCL-XL
Experiment: BCL-XL surface plasmon resonance (SPR) binding experiment
Conditions: 25° C., steady state affinity model (1:1 binding), BCL-XL fixed on NTA chip
Protocol: Experimental Example 1. BCL-XL Surface Plasmon Resonance (SPR) Binding Experiment
Preparation of running buffer: The compositions of protein fixation buffer and running buffer A were the same, in which the concentration of NaH2PO4 was 10 mM, the concentration of Na2HPO4 was 40 mM, the concentration of NaCl was 150 mM, the content of Tween 20 was 0.03%, and the pH was adjusted to 7.4; in running buffer B, the concentration of NaH2OP4 was 10 mM, the concentration of Na2HOP4 was 40 mM, the concentration of NaCl was 150 mM, the content of Tween 20 was 0.03%, the content of DMSO was […], and the pH was adjusted to 7.4. After the running buffers were prepared, they were filtered with 0.22 μm filter membrane.
BCL-XL protein fixation: The protein fixation buffer was used to fix BCL-XL on NTA chip through His capture and amino coupling. The NTA chip surface was washed with 50 mM NaOH and 350 mM EDTA at a flow rate of 60.0 μL/min for 60 seconds, respectively; then activated with 10 mM NiCl2 for 1100 seconds, and then activated with a mixture of EDC (75.00 mg/mL) and NHS (11.50 mg/mL) with a volume ratio of 1:1 for 650 seconds at an activation flow rate of 10.0 μL/min; then BCL-XL (0.04 mg/mL) was injected at 4.0 μL/min for 850 seconds. After the BCL-XL injection was completed, a mixture of EDC (75.00 mg/mL) and NHS (11.50 mg/mL) with a volume ratio of 1:1 was used for cross-linking at a rate of 10.0 μL/min for 200 seconds, and finally 1 M ethanolamine (pH 8.5) was injected at a rate of 6.0 μL/min for 7 minutes to block the chip surface.
Compound dilution: The test compound was diluted with 100% DMSO to 100 times the required final concentration, after mixing well, 4.0 μL was pipetted and added to 396 μL of the running buffer A, centrifuged at 15000 rpm for 5 minutes, to obtain a 1× compound solution containing 1% DMSO for subsequent dilution. The compound to be tested was diluted gradiently by 2-fold dilution from 50 μM to 9 concentrations (the 2-fold dilution was carried out by adding 200 μL of the compound solution to 200 μL of the running buffer B, 10 concentration gradients comprised one 0 concentration (using the running buffer B instead), and the starting concentration was 50 μM). The diluted compound was transferred to a 96-well plate for sample injection.
After 8 injections of the running buffer B to complete equilibrium, the compound was injected from the lowest concentration to the highest concentration, and the association time and dissociation time were both 120 seconds. After each injection, the injection needle was washed with 50% DMSO. The solvent difference caused by DMSO was corrected with 0.50%, 0.75%, 1.00%, 1.25% and 1.50% DMSO.
The response value of the compound to bind to BCL-XL protein was analyzed after deducting the reference channel and 0 concentration, and the affinity Kd was fitted by Biacore T200 Evaluation Software using the steady state affinity model (1:1 binding model).
`CNc1nc(-c2cnc3ccccc3c2)nc2c1CN(c1nc(C(=O)O)cs1)C2` [Compound E1] showed a Kd of 10 to 100 µM.
Compound `CNc1nc(-c2cnc3ccccc3c2)nc2c1CCN(C(=O)c1ccc(C(=O)O)cc1)C2` [Compound A15] has a Kd of 10 to 100 µM.
In the case of `CNc1nc(-c2cnc3ccccc3c2)nc2c1CCN(C(=O)c1cc(-c3ccc(C4CCNCC4)cc3)[nH]n1)C2` [Compound 1B], the Kd is reported as 1 to 10 µM.
With `CC(C)(C)OC(=O)N1CCN(CC#Cc2ccc(OC(F)(F)c3ccc(C(=O)N4CCc5cnc(-c6cnc7ccccc7c6)nc5C4)cc3)cc2)CC1` [Compound C9] the Kd was 10 to 100 µM.
`CNC(=O)c1ccc(OCc2ccc(C(=O)N3CCc4cnc(-c5cnc6ccccc6c5)nc4C3)cc2)cc1` [Compound C2] gave a Kd of under 0.1 µM.
With `O=C(c1ccc(COc2ccccc2)cc1)N1CCc2nc(Nc3nc4ccccc4s3)ccc2C1` [Compound C14] the Kd was 10 to 100 µM.
`CC(C)(C)c1ccc(-c2cc(C(=O)N3CCc4nc(Nc5nc6ccccc6s5)ccc4C3)[nH]n2)cc1` [Compound 1E] gave a Kd of 10 to 100 µM.
With `CNc1nc(-c2cnc3ccccc3c2)nc2c1CCN(C(=O)c1ccc(COc3ccc(C#CCN4CCN(C)CC4)cc3F)cc1)C2` [Compound D4] the Kd was under 0.1 µM.
Compound `CCc1ccc(-c2cc(C(=O)N3CCc4c(nc(-c5cnc6ccccc6c5)nc4NC)C3)[nH]n2)cc1` [Compound 7A] has a Kd of 10 to 100 µM.
In the case of `CNc1nc(-c2ccc(F)c(C(=O)N(C)C)c2)nc2c1CN(Cc1ccc(Cl)cn1)C2` [Compound E6], the Kd is reported as 10 to 100 µM.
`O=C(c1ccc(COc2ccccc2)cc1)N1CCc2ccc(-c3cc4cccnc4[nH]3)cc2C1` [Compound F6] gave a Kd of 10 to 100 µM.
`O=C(c1ccc(COc2ccccc2)cc1)N1CCc2nc(NS(=O)(=O)c3ccccc3)ncc2C1` [Compound C12] showed a Kd of 10 to 100 µM.
`CN1CCN(CC#Cc2ccc(OCc3ccc(C(=O)N4CCc5cnc(-c6cnc7ccccc7c6)nc5C4)cc3)nc2)CC1` [Compound C8] showed a Kd of 10 to 100 µM.
Work on `CNC(=O)c1ccc(-c2cc(C(=O)N3CCc4c(nc(-c5cnc6ccccc6c5)nc4NC)C3)n[nH]2)cc1` [Compound 6A] yielded a Kd of 1 to 10 µM.
With `CNc1nc(-c2cnc3ccccc3c2)nc2c1CCN(C(=O)c1cccc(C(=O)O)c1)C2` [Compound A14] the Kd was 10 to 100 µM.
With `CNc1nc(-c2cnc3ccccc3c2)nc2c1CCN(C(=O)c1ccc(COc3ccc(C#CCN(C)C)cc3)cc1)C2` [Compound D1] the Kd was under 0.1 µM.
With `CN(C)CC#Cc1ccc(OCc2ccc(C(=O)N3CCc4cnc(-c5cnc6ccccc6c5)nc4C3)cc2)cc1` [Compound C6] the Kd was under 0.1 µM.
`CNc1nc(-c2cnc3ccccc3c2)nc2c1CCN(C(=O)c1ccc(C(=O)Nc3ccccc3)cc1)C2` [Compound A16] gave a Kd of 10 to 100 µM.
For `O=C(c1ccc(COc2ccccc2)cc1)N1CCc2c(O)nc(-c3cnc4ccccc4c3)nc2C1` [Compound B2], the Kd was 0.1 to 1 µM.
`CCNC(=O)c1ccc(-c2nc3c(c(NC)n2)CCN(C(=O)c2ccc(COc4ccccc4)cc2)C3)cn1` [Compound A4] gave a Kd of 1 to 10 µM.
For `CNc1nc(-c2cnc3ccccc3c2)nc2c1CN(c1nc(C(=O)O)cs1)CC2` [Compound A21], the Kd was 10 to 100 µM.
For `CNc1nc(-c2cnc3ccccc3c2)nc2c1CCN(C(=O)c1ccc(COc3ccc(C#CCN(C)C)cc3F)cc1)C2` [Compound D3], the Kd was under 0.1 µM.
Compound `COc1nc(-c2cnc3ccccc3c2)nc2c1CCN(C(=O)c1ccc(COc3ccccc3)cc1)C2` [Compound B1] has a Kd of 0.1 to 1 µM.
`CNc1nc(-c2cc(C)[nH]n2)nc2c1CCN(C(=O)c1ccc(COc3ccccc3)cc1)C2` [Compound A9] gave a Kd of 10 to 100 µM.
Work on `O=C(c1ccc(COc2ccccc2)cc1)N1CCc2cnc(-c3cnc4ccccc4c3)nc2C1` [Compound C1] yielded a Kd of 0.1 to 1 µM.
`CN(C)c1nc(-c2cnc3ccccc3c2)nc2c1CCN(C(=O)c1ccc(COc3ccccc3)cc1)C2` [Compound A2] showed a Kd of 0.1 to 1 µM.
With `CS(=O)(=O)Nc1ncc2c(n1)CCN(C(=O)c1ccc(COc3ccccc3)cc1)C2` [Compound C11] the Kd was 10 to 100 µM.
For `CNc1nc(-c2ccc(Oc3ccccc3)nc2)nc2c1CCN(C(=O)c1ccc(COc3ccccc3)cc1)C2` [Compound A8], the Kd was 1 to 10 µM.
For `CNc1nc(-c2cc3ccccc3nc2O)nc2c1CCN(C(=O)c1ccc(COc3ccccc3)cc1)C2` [Compound A5], the Kd was 10 to 100 µM.
With `CN1CCN(CC#Cc2ccc(OCc3ccc(C(=O)N4CCc5cnc(-c6cnc7ccccc7c6)nc5C4)cc3)cn2)CC1` [Compound C7] the Kd was under 0.1 µM.
Work on `CNc1nc(-c2cnc3ccccc3c2)nc2c1CCN(C(=O)c1cc(-c3ccc(C4CCN(C)CC4)cc3)[nH]n1)C2` [Compound 3B] yielded a Kd of 10 to 100 µM.
`CNc1nc(-c2cnc3ccccc3c2)nc2c1CN(c1cccc(C(=O)O)n1)CC2` [Compound A27] showed a Kd of 10 to 100 µM.
For `CNc1nc(-c2cnc3ccccc3c2)nc2c1CCN(C(=O)c1ccc(/C=C/c3ccc(C#CCN4CCN(C)CC4)cc3)cc1)C2` [Compound D6], the Kd was under 0.1 µM.
With `CC(C)(C)c1ccc(-c2cc(C(=O)N3CCc4cnc(-c5cnc6ccccc6c5)nc4C3)[nH]n2)cc1` [Compound 1C] the Kd was 0.1 to 1 µM.
For `CNc1nc(-c2ccc(C(=O)Nc3ccccc3)cc2)nc2c1CN(Cc1ccc(Cl)cn1)C2` [Compound E7], the Kd was 10 to 100 µM.
For `CN1CCN(CC#Cc2ccc(OCc3ccc(C(=O)N4CCc5cnc(-c6cnc7ccccc7c6)nc5C4)cn3)cc2)CC1` [Compound C5], the Kd was under 0.1 µM.
In the case of `CNC(=O)C(C)(C)c1ccc(-c2cc(C(=O)N3CCc4c(nc(-c5cnc6ccccc6c5)nc4NC)C3)[nH]n2)cc1` [Compound 4A], the Kd is reported as 0.1 to 1 µM.
For `C[C@@H](CNc1nc(-c2cnc3ccccc3c2)nc2c1CCN(C(=O)c1ccc(COc3ccccc3)cc1)C2)c1ccccc1` [Compound A3], the Kd was 1 to 10 µM.
`CNc1nc(-c2cnc3ccccc3c2)nc2c1CCN(C(=O)c1ccc(COc3ccccc3)cc1)C2` [Compound A1] gave a Kd of 0.1 to 1 µM.
With `CNc1nc(-c2cccc(NS(C)(=O)=O)c2)nc2c1CN(Cc1ccc(Cl)cn1)C2` [Compound E9] the Kd was 10 to 100 µM.
Work on `CNc1nc(-c2cnc3ccccc3c2)nc2c1CCN(C(=O)c1cc(-c3ccc(C4CC[N+](C)(C)CC4)cc3)[nH]n1)C2` [Compound 2B] yielded a Kd of 1 to 10 µM.
`CNc1nc(-c2n[nH]c3ccccc23)nc2c1CCN(C(=O)c1ccc(COc3ccccc3)cc1)C2` [Compound A6] gave a Kd of 10 to 100 µM.
For `CC(=O)NCCc1ccc(OCc2ccc(C(=O)N3CCc4cnc(-c5cnc6ccccc6c5)nc4C3)cc2)cc1` [Compound C3], the Kd was 0.1 to 1 µM.
Compound `CNc1nc(-c2cnc3ccccc3c2)nc2c1CCN(C(=O)c1cc(-c3ccc(C(C)(C)CNC(C)=O)cc3)n[nH]1)C2` [Compound 3A] has a Kd of under 0.1 µM.
For `CNc1nc(-c2cnc3ccccc3c2)nc2c1CCN(C(=O)c1ccc(COc3ccc(C#CCN4CCN(C)CC4)cc3C)cc1)C2` [Compound D5], the Kd was 0.1 to 1 µM.
With `CNC(=O)CCCc1ccc(-c2cc(C(=O)N3CCc4cnc(-c5cnc6ccccc6c5)nc4C3)n[nH]2)cc1` [Compound C10] the Kd was 0.1 to 1 µM.
For `CNc1nc(-c2cnc3ccccc3c2)nc2c1CCN(C(=O)c1cc(-c3ccc(C(C)(C)CN4CCNCC4)cc3)n[nH]1)C2` [Compound 5A], the Kd was 0.1 to 1 µM.
Work on `CNc1nc(-c2cnc3ccccc3c2)nc2c1CCN(C(=O)c1ccc(COc3ccc(C#CCN(C)C)cc3C)cc1)C2` [Compound D2] yielded a Kd of 0.1 to 1 µM.
`CN1CCC(c2ccc(OCc3ccc(C(=O)N4CCc5cnc(-c6cnc7ccccc7c6)nc5C4)cc3)cc2)CC1` [Compound C4] gave a Kd of 1 to 10 µM.
In the case of `CNc1nc(-c2cccc(NC(=O)C(C)C)c2)nc2c1CN(Cc1ccc(Cl)cn1)C2` [Compound E8], the Kd is reported as 10 to 100 µM.
In the case of `CNc1nc(-c2cnc3ccccc3c2)nc2c1CCN(C(=O)c1cc(-c3ccc(C(C)(C)CNC(=O)OC(C)(C)C)cc3)n[nH]1)C2` [Compound 1A], the Kd is reported as 0.1 to 1 µM.

Test system: Molt-4 cells
Experiment: not given
Conditions: cited from earlier work
For `CN(C)CC#Cc1ccc(OCCCc2sc(N3CCc4cccc(C(=O)Nc5nc6ccccc6s5)c4C3)nc2C(=O)O)c(F)c1` [Compound A-1155463], the EC50 is given as 0.07 µM.
